According to patent US20250074911A1, “MACROCYCLIC BTK INHIBITORS” (Crossfire Oncology Holding B.V., priority 2021, published 2025):
Values joined by “and” are separate entries in the source; they are usually repeats but may differ in a detail not shown here. Equal entries are not always repeated.

Assays:
BTK T474I = BTK T474I (Homo sapiens (Human), UniProt Q06187, T474I); test: Binding kinetics measurements (Surface Plasmon Resonance) on BTK T474I; settings: for Kd: binding affinity by Surface Plasmon Resonance (SPR); for Tau (h) BTK T474I (Act): target residence time, SPR
BTK T474I, sequence (Q06187 whole entry T474I): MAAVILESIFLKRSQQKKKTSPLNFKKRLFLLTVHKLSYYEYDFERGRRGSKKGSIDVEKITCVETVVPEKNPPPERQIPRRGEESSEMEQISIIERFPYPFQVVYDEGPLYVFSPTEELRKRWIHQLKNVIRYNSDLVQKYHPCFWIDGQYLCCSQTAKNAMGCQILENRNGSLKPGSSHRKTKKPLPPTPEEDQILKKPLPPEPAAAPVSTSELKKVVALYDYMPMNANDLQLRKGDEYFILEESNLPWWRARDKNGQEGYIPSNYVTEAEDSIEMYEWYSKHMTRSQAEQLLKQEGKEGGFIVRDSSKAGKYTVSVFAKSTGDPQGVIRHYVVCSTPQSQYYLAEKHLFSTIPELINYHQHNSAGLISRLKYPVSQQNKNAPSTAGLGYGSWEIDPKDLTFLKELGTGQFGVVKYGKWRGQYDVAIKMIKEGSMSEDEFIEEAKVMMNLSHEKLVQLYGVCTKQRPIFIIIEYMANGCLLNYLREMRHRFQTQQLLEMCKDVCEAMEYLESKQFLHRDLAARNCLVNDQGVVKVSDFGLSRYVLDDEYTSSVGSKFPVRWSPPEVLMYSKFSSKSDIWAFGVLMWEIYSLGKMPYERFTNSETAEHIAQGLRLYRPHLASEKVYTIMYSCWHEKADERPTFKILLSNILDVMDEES
Method in brief: (§1)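 SPR on biotinylated wild-type or mutant human BTK captured on streptavidin chips (immobilized at 4° C, assay at 22° C), buffer with 1% DMSO, 30 μl/min. Single-cycle kinetics, five injections of 3.16-316 nM compound; double-referenced sensorgrams fitted (two-state model for induced fit), duplicate ka, kd, KD geometrically averaged.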

REC-1 T474I cell lines = test: Cell proliferation assay REC-1 BTK T474I knock-in cells (ATPlite, 72 hours); type: cell-based; settings: Homo sapiens, Rec1; 72 hours; read-out: IC50 REC-1 T474I
Method in brief: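 REC-1 cells carrying CRISPR knock-in mutant BTK, single-cell cloned and sequence-confirmed, were exposed to compound for 72 h and read by ATPlite luminescence. Percentage growth was calculated against the signal at the start of incubation and against untreated 0.3% DMSO wells as maximum growth.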

wt-BTK = wt-BTK (Homo sapiens (Human), UniProt Q06187); test: Binding kinetics measurements (Surface Plasmon Resonance) on wt-BTK; settings: for Kd: binding affinity by Surface Plasmon Resonance (SPR); for Tau (h) wt-BTK (Act): target residence time, SPR
wt-BTK, sequence (Q06187 whole entry): as the sequence (Q06187 whole entry T474I) above, with I474T counted along it
Method in brief: as §1

[1] = target: full-length BTK C481S enzyme (Homo sapiens (Human), UniProt Q06187, C481S); test: Biochemical kinase assay BTK C481S (IMAP)
full-length BTK C481S enzyme, sequence (Q06187 whole entry C481S): as the sequence (Q06187 whole entry T474I) above, with I474T, C481S counted along it
Method in brief: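 Full-length BTK C481S (1.2 nM) was pre-incubated with compound for 1 h at room temperature in the dark, then reacted with fluorescein-labelled MBP-derived peptide (50 nM) and ATP (7 μM) for 2 h. Reactions were quenched with IMAP binding solution, and IC50 values were derived from fluorescence polarization.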

BTK T474S = BTK T474S (Homo sapiens (Human), UniProt Q06187, T474S); test: Binding kinetics measurements (Surface Plasmon Resonance) on BTK T474S; settings: for residence time: SPR binding kinetics, BTK T474S, read-out: Tau (h) BTK T474S (Act), target residence time (converted); for Kd: binding affinity by Surface Plasmon Resonance (SPR)
BTK T474S, sequence (Q06187 whole entry T474S): as the sequence (Q06187 whole entry T474I) above, with I474S counted along it
Method in brief: as §1

[2] = tested on: wt-TMD8 diffuse large B-cell lymphoma cells; test: Cell proliferation assay wt-TMD8 (ATPlite, 120 hours); type: cell-based; settings: B-cell; wt-TMD8 cells, 120 hours, ATPlite; read-out: IC50 wt-TMD8
Method in brief: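 wt-TMD8 DLBCL cells, 1600 per well in RPMI-1640 with 10% FBS, rested ≥5 h then exposed to compound for 120 h at 37° C, 5% CO2. Viability read by ATPlite luminescence; percentage growth calculated relative to start-of-incubation signal and untreated 0.3% DMSO maximum growth.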

[3] = tested on: wt-REC-1 mantle cell lymphoma cells; test: Cell proliferation assay wt-REC-1 (ATPlite, 72 hours); type: cell-based; settings: 72 h; read-out: IC50 wt-REC-1
Method in brief: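 Luminescent viability read over 72 h, start-of-incubation signal recorded separately to separate growth from cell death. Percentage growth referenced to compound-free 0.3% DMSO wells; IC50 from 4-parameter logistic fit.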

BTK T316A = BTK T316A (Homo sapiens (Human), UniProt Q06187, T316A); test: Binding kinetics measurements (Surface Plasmon Resonance) on BTK T316A; settings: for Kd: binding affinity by Surface Plasmon Resonance (SPR); for Tau (h) BTK T316A (Act): target residence time, SPR
BTK T316A, sequence (Q06187 whole entry T316A): as the sequence (Q06187 whole entry T474I) above, with T316A, I474T counted along it
Method in brief: as §1

BTK C481S = BTK C481S (Homo sapiens (Human), UniProt Q06187, C481S); test: Binding kinetics measurements (Surface Plasmon Resonance) on BTK C481S; settings: for Kd: binding affinity by Surface Plasmon Resonance (SPR); for Tau (h) BTK C418S (Act): target residence time for BTK C481S, SPR
BTK C481S, sequence (Q06187 whole entry C481S): as the sequence (Q06187 whole entry T474I) above, with I474T, C481S counted along it
Method in brief: as §1

[4] = target: full-length wt-BTK enzyme (Homo sapiens (Human), UniProt Q06187); test: Biochemical kinase assay wt-BTK (IMAP)
full-length wt-BTK enzyme, sequence (Q06187 whole entry): as the sequence (Q06187 whole entry T474I) above, with I474T counted along it
Method in brief: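 IMAP fluorescence polarization assay: 1.2 nM enzyme pre-incubated 1 h with compound at room temperature, then 50 nM fluorescein-labeled MBP-derived peptide and 4 μM ATP added. Reaction ran 2 h at room temperature in the dark before quenching with IMAP binding solution.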

Row | SMILES | Kd (BTK T474I) | Tau (h) BTK T474I (Act) (BTK T474I) | IC50 (REC-1 T474I cell lines) | Kd (wt-BTK) | Tau (h) wt-BTK (Act) (wt-BTK) | IC50 [1] | residence time (BTK T474S) | Kd (BTK T474S) | IC50 [2] | IC50 [3] | Kd (BTK T316A) | Tau (h) BTK T316A (Act) (BTK T316A) | Kd (BTK C481S) | Tau (h) BTK C418S (Act) (BTK C481S) | IC50 [4]
1 | Nc1ncc2c3c1c(-c1ccc(C(=O)Nc4cc(C(F)(F)F)ccn4)cc1)nn3[C@@H]1CCCN(C1)C(=O)CCCCCC/C=C/2 [Example 79] | < 2 nM | 1.80 h | 100 to 500 nM | < 5 nM | 8.24 h | < 5 nM | 6.2 h | < 3 nM | < 100 nM | < 100 nM | < 5 nM | 3.23 h | < 5 nM | 7.11 h | < 5 nM
2 | CN1C/C=C/c2cnc(N)c3c(-c4ccc(C(=O)Nc5cc(C(F)(F)F)ccn5)cc4)nn(c23)[C@@H]2CCC[C@H](C2)NC(=O)C1 [Example 9] | 10 to 50 nM and < 5 nM | – | 500 to 10000 nM | < 5 nM | 1.02 h | < 5 nM | 1.53 h | < 3 nM | < 100 nM | 100 to 1000 nM | < 5 nM | – | < 5 nM | 2.60 h | < 5 nM
3 | C[C@@H]1CC(=O)N[C@@H]2CCC[C@H](C2)n2nc(-c3ccc(C(=O)Nc4cc(C(F)(F)F)ccn4)cc3)c3c(N)ncc(c32)/C=C/CN1C [Example 44] | < 2 nM | 0.87 h | < 100 nM | < 5 nM | 2.32 h | < 5 nM | 3.27 h | < 3 nM | < 100 nM | < 100 nM | < 5 nM | 2.47 h | < 5 nM | – | < 5 nM
4 | Nc1ncc2c3c1c(-c1ccc(C(=O)Nc4cc(C(F)(F)F)ccn4)cc1)nn3[C@@H]1CCC[C@H](C1)NC(=O)CNC[C@@H](O)/C=C/2 [Example 39] | < 2 nM | – | 500 to 10000 nM | < 5 nM | 4.22 h | < 5 nM | 5.96 h | < 3 nM | < 100 nM | 100 to 1000 nM | < 5 nM | 1.25 h | < 5 nM | 2.54 h | < 5 nM
5 | Nc1ncc2c3c1c(-c1ccc(C(=O)Nc4cc(C(F)(F)F)ccn4)cc1)nn3[C@@H]1CCC[C@H](C1)NC(=O)CCNC/C=C/2 [Example 21] | < 2 nM | – | 100 to 500 nM | < 5 nM | 4.34 h | < 5 nM | 3.59 h | < 3 nM | < 100 nM | < 100 nM | < 5 nM | 3.89 h | < 5 nM | 7.53 h | < 5 nM
6 | C[C@@H]1CCn2nc(-c3ccc(C(=O)Nc4cc(C(F)(F)F)ccn4)cc3)c3c(N)ncc(c32)/C=C/CCOCC(=O)N1 [Example 59] | 10 to 50 nM and < 5 nM | – | 500 to 10000 nM | < 5 nM | 1.10 h | < 5 nM | – | < 3 nM | < 100 nM | < 100 nM | < 5 nM | 1.04 h | < 5 nM | 2.05 h | < 5 nM
7 | C[C@@H]1CCn2nc(-c3ccc(C(=O)Nc4cc(C(F)(F)F)ccn4)cc3)c3c(N)ncc(c32)/C=C/CO[C@H](C)C(=O)N1 [Example 57] | < 2 nM | – | 500 to 10000 nM | < 5 nM | 2.14 h | < 5 nM | 1.96 h | < 3 nM | < 100 nM | < 100 nM | < 5 nM | 2.06 h | < 5 nM | 7.92 h | < 5 nM
8 | Nc1ncc2c3c1c(-c1ccc(C(=O)Nc4cc(C(F)(F)F)ccn4)cc1)nn3[C@@H]1CCC[C@H](C1)NC(=O)C1CCN1CC/C=C/2 (some centres unmarked) [Example 34] | < 2 nM | 1.70 h | < 100 nM | < 5 nM | 6.06 h | < 5 nM | 8.1 h | < 3 nM | < 100 nM | < 100 nM | < 5 nM | 5.41 h | < 5 nM | 9.06 h | < 5 nM
9 | Nc1ncc2c3c1c(-c1ccc(C(=O)Nc4cc(C(F)(F)F)ccn4)cc1)nn3[C@@H]1CCC[C@H](C1)NC(=O)COC/C=C/2 [Example 49] | < 2 nM | – | 100 to 500 nM | < 5 nM | 3.20 h | < 5 nM | 4.63 h | < 3 nM | < 100 nM | < 100 nM | < 5 nM | 2.20 h | < 5 nM | 4.75 h | < 5 nM
10 | COc1ccc(F)cc1C(=O)NCc1ccc(-c2nn3c4c(cnc(N)c24)/C=C/CO[C@H](C)C(=O)N[C@@H]2CCC[C@@H]3C2)cc1 [Example 53] | 10 to 50 nM and < 5 nM | – | 100 to 500 nM | < 5 nM | 0.89 h | < 5 nM | 1.26 h | < 3 nM | < 100 nM | < 100 nM | < 5 nM | – | < 5 nM | 1.57 h | < 5 nM
11 | Nc1ncc2c3c1c(-c1ccc(C(=O)Nc4ccccn4)cc1)nn3[C@@H]1CCC[C@H](C1)C(=O)NCCCC/C=C\C2 [Example 87b] | 10 to 50 nM and < 5 nM | – | 100 to 500 nM | < 5 nM | – | < 5 nM | – | < 3 nM | < 100 nM | < 100 nM | < 5 nM | – | < 5 nM | – | < 5 nM
